From the NIST ThermoML archive (doi:10.1016/j.jct.2017.03.006)
± gives the expanded uncertainty stated by the source.

Assay: xn = mol fraction of the nth substance listed
Settings: 333.15 K, Liquid, Vibrating tube method

In the case of `Cc1ccc(C)c(C)c1` [1,2,4-trimethylbenzene] + CCC(C)O, the mass density (40000 kPa, x2 = 0.7999) is reported as 819.7 ± 0.8 kg/m3, the mass density (40000 kPa, x2 = 0.9) is reported as 812.1 ± 0.8 kg/m3 and the mass density (50000 kPa, x2 = 0) is reported as 877.4 ± 0.8 kg/m3. For the same compound, the mass density (50000 kPa, x2 = 0.1) was 871.2 ± 0.8 kg/m3, the mass density (50000 kPa, x2 = 0.1989) was 865.3 ± 0.8 kg/m3 and the mass density (50000 kPa, x2 = 0.3011) was 859.2 ± 0.8 kg/m3. It also gave a mass density (50000 kPa, x2 = 0.4002) of 853.2 ± 0.8 kg/m3, a mass density (50000 kPa, x2 = 0.5001) of 847.6 ± 0.8 kg/m3 and a mass density (50000 kPa, x2 = 0.5997) of 840.5 ± 0.8 kg/m3. For the same compound, the mass density (50000 kPa, x2 = 0.6999) was 833.4 ± 0.8 kg/m3, the mass density (50000 kPa, x2 = 0.7999) was 826.3 ± 0.8 kg/m3 and the mass density (50000 kPa, x2 = 0.9) was 818.7 ± 0.8 kg/m3. For the same compound, the mass density (60000 kPa, x2 = 0) was 883 ± 0.8 kg/m3, the mass density (60000 kPa, x2 = 0.1) was 876.9 ± 0.8 kg/m3 and the mass density (60000 kPa, x2 = 0.1989) was 871.1 ± 0.8 kg/m3. The mass density (60000 kPa, x2 = 0.3011) was 865.1 ± 0.8 kg/m3, the mass density (60000 kPa, x2 = 0.4002) was 859.1 ± 0.8 kg/m3 and the mass density (60000 kPa, x2 = 0.5001) was 853.7 ± 0.8 kg/m3. The mass density (60000 kPa, x2 = 0.5997) was 846.6 ± 0.8 kg/m3, the mass density (60000 kPa, x2 = 0.6999) was 839.5 ± 0.8 kg/m3 and the mass density (60000 kPa, x2 = 0.7999) was 832.5 ± 0.8 kg/m3. The mass density (60000 kPa, x2 = 0.9) was 824.9 ± 0.8 kg/m3, the mass density (70000 kPa, x2 = 0) was 888.2 ± 0.8 kg/m3 and the mass density (70000 kPa, x2 = 0.1) was 882.5 ± 0.8 kg/m3. For the same compound, the mass density (70000 kPa, x2 = 0.1989) was 876.6 ± 0.8 kg/m3, the mass density (70000 kPa, x2 = 0.3011) was 870.6 ± 0.8 kg/m3 and the mass density (70000 kPa, x2 = 0.4002) was 864.8 ± 0.8 kg/m3. For the same compound, the mass density (70000 kPa, x2 = 0.5001) was 859.3 ± 0.8 kg/m3, the mass density (70000 kPa, x2 = 0.5997) was 852.3 ± 0.8 kg/m3 and the mass density (70000 kPa, x2 = 0.6999) was 845.3 ± 0.8 kg/m3. The mass density (70000 kPa, x2 = 0.7999) was 838.4 ± 0.9 kg/m3, the mass density (70000 kPa, x2 = 0.9) was 830.7 ± 0.9 kg/m3 and the mass density (80000 kPa, x2 = 0) was 893.2 ± 0.8 kg/m3. For the same compound, the mass density (80000 kPa, x2 = 0.1) was 887.6 ± 0.8 kg/m3, the mass density (80000 kPa, x2 = 0.1989) was 881.9 ± 0.8 kg/m3 and the mass density (80000 kPa, x2 = 0.3011) was 875.9 ± 0.8 kg/m3. It also gave a mass density (80000 kPa, x2 = 0.4002) of 870.1 ± 0.8 kg/m3, a mass density (80000 kPa, x2 = 0.5001) of 864.7 ± 0.8 kg/m3 and a mass density (80000 kPa, x2 = 0.5997) of 857.8 ± 0.9 kg/m3. The mass density (80000 kPa, x2 = 0.6999) was 850.8 ± 0.9 kg/m3, the mass density (80000 kPa, x2 = 0.7999) was 843.7 ± 0.9 kg/m3 and the mass density (80000 kPa, x2 = 0.9) was 836.2 ± 0.9 kg/m3. It also gave a mass density (90000 kPa, x2 = 0) of 898 ± 0.8 kg/m3, a mass density (90000 kPa, x2 = 0.1) of 892.5 ± 0.8 kg/m3 and a mass density (90000 kPa, x2 = 0.1989) of 886.9 ± 0.8 kg/m3. It also gave a mass density (90000 kPa, x2 = 0.3011) of 881 ± 0.8 kg/m3, a mass density (90000 kPa, x2 = 0.4002) of 875.2 ± 0.9 kg/m3 and a mass density (90000 kPa, x2 = 0.5001) of 869.8 ± 0.9 kg/m3. It also gave a mass density (90000 kPa, x2 = 0.5997) of 862.9 ± 0.9 kg/m3, a mass density (90000 kPa, x2 = 0.6999) of 856 ± 0.9 kg/m3 and a mass density (90000 kPa, x2 = 0.7999) of 849 ± 0.9 kg/m3. It also gave a mass density (90000 kPa, x2 = 0.9) of 841.4 ± 0.9 kg/m3, a mass density (100000 kPa, x2 = 0) of 902.5 ± 0.8 kg/m3 and a mass density (100000 kPa, x2 = 0.1) of 897.2 ± 0.8 kg/m3. It also gave a mass density (100000 kPa, x2 = 0.1989) of 891.7 ± 0.8 kg/m3, a mass density (100000 kPa, x2 = 0.3011) of 885.8 ± 0.9 kg/m3 and a mass density (100000 kPa, x2 = 0.4002) of 880 ± 0.9 kg/m3. The mass density (100000 kPa, x2 = 0.5001) was 874.7 ± 0.9 kg/m3, the mass density (100000 kPa, x2 = 0.5997) was 867.9 ± 0.9 kg/m3 and the mass density (100000 kPa, x2 = 0.6999) was 860.9 ± 0.9 kg/m3. For the same compound, the mass density (100000 kPa, x2 = 0.7999) was 853.9 ± 0.9 kg/m3, the mass density (100000 kPa, x2 = 0.9) was 846.4 ± 0.9 kg/m3 and the mass density (110000 kPa, x2 = 0) was 906.9 ± 0.8 kg/m3. It also gave a mass density (110000 kPa, x2 = 0.1) of 901.8 ± 0.8 kg/m3, a mass density (110000 kPa, x2 = 0.1989) of 896.2 ± 0.9 kg/m3 and a mass density (110000 kPa, x2 = 0.3011) of 890.5 ± 0.9 kg/m3. For the same compound, the mass density (110000 kPa, x2 = 0.4002) was 884.7 ± 0.9 kg/m3, the mass density (110000 kPa, x2 = 0.5001) was 879.4 ± 0.9 kg/m3 and the mass density (110000 kPa, x2 = 0.5997) was 872.6 ± 0.9 kg/m3. The mass density (110000 kPa, x2 = 0.6999) was 865.7 ± 0.9 kg/m3, the mass density (110000 kPa, x2 = 0.7999) was 858.7 ± 1 kg/m3 and the mass density (110000 kPa, x2 = 0.9) was 851.2 ± 1 kg/m3. For the same compound, the mass density (120000 kPa, x2 = 0) was 911.1 ± 0.8 kg/m3, the mass density (120000 kPa, x2 = 0.1) was 906.1 ± 0.8 kg/m3 and the mass density (120000 kPa, x2 = 0.1989) was 900.7 ± 0.9 kg/m3. The mass density (120000 kPa, x2 = 0.3011) was 894.8 ± 0.9 kg/m3, the mass density (120000 kPa, x2 = 0.4002) was 889.1 ± 0.9 kg/m3 and the mass density (120000 kPa, x2 = 0.5001) was 883.9 ± 0.9 kg/m3. For the same compound, the mass density (120000 kPa, x2 = 0.5997) was 877.1 ± 0.9 kg/m3, the mass density (120000 kPa, x2 = 0.6999) was 870.2 ± 0.9 kg/m3 and the mass density (120000 kPa, x2 = 0.7999) was 863.2 ± 1 kg/m3. The mass density (120000 kPa, x2 = 0.9) was 855.7 ± 1 kg/m3, the mass density (130000 kPa, x2 = 0) was 915.1 ± 0.8 kg/m3 and the mass density (130000 kPa, x2 = 0.1) was 910.3 ± 0.9 kg/m3. For the same compound, the mass density (130000 kPa, x2 = 0.1989) was 904.9 ± 0.9 kg/m3, the mass density (130000 kPa, x2 = 0.3011) was 899.1 ± 0.9 kg/m3 and the mass density (130000 kPa, x2 = 0.4002) was 893.4 ± 0.9 kg/m3. For the same compound, the mass density (130000 kPa, x2 = 0.5001) was 888.2 ± 0.9 kg/m3, the mass density (130000 kPa, x2 = 0.5997) was 881.5 ± 0.9 kg/m3 and the mass density (130000 kPa, x2 = 0.6999) was 874.5 ± 1 kg/m3. For the same compound, the mass density (130000 kPa, x2 = 0.7999) was 867.5 ± 1 kg/m3, the mass density (130000 kPa, x2 = 0.9) was 860.1 ± 1 kg/m3 and the mass density (140000 kPa, x2 = 0) was 919 ± 0.8 kg/m3. For the same compound, the mass density (140000 kPa, x2 = 0.1) was 914.3 ± 0.9 kg/m3, the mass density (140000 kPa, x2 = 0.1989) was 909.1 ± 0.9 kg/m3 and the mass density (140000 kPa, x2 = 0.3011) was 903 ± 0.9 kg/m3. For the same compound, the mass density (140000 kPa, x2 = 0.4002) was 897.5 ± 0.9 kg/m3, the mass density (140000 kPa, x2 = 0.5001) was 892.2 ± 0.9 kg/m3 and the mass density (140000 kPa, x2 = 0.5997) was 885.9 ± 1 kg/m3. For the same compound, the mass density (140000 kPa, x2 = 0.6999) was 878.5 ± 1 kg/m3, the mass density (140000 kPa, x2 = 0.7999) was 871.5 ± 1 kg/m3 and the mass density (140000 kPa, x2 = 0.9) was 864 ± 1 kg/m3.
